Key:
[1] = Storage stability of analytes in rat plasma (method validation); conditions: for Auto-Sampler Stability at 2–8 °C (72 h), Bias / Auto-Sampler Stability at 2–8 °C (72 h), Measured Concentration: processed rat plasma; for Auto-Sampler Stability at 2–8 °C (72 h), Bias / Short-Term Stability at Room Temperature (4 h), Bias / Freeze and Thaw Stability at −80 °C/Room Temperature (3 Cycles), Bias / Long-Term Stability at −80 °C (70 days), Bias: n = 6; for Auto-Sampler Stability at 2–8 °C (72 h), Measured Concentration / Freeze and Thaw Stability at −80 °C/Room Temperature (3 Cycles), Measured Concentration / Long-Term Stability at −80 °C (70 days), Measured Concentration / Short-Term Stability at Room Temperature (4 h), Measured Concentration: n = 6, mean ± SD; for Short-Term Stability at Room Temperature (4 h), Bias / Freeze and Thaw Stability at −80 °C/Room Temperature (3 Cycles), Bias / Long-Term Stability at −80 °C (70 days), Bias / Freeze and Thaw Stability at −80 °C/Room Temperature (3 Cycles), Measured Concentration / Long-Term Stability at −80 °C (70 days), Measured Concentration / Short-Term Stability at Room Temperature (4 h), Measured Concentration: rat plasma; for Short-Term Stability at Room Temperature (4 h), Bias: bias from nominal
Procedure: (§5) By investigating low- and high-concentration stability QCs in six replicates at different storage conditions, autosampler, short-term (bench-top), freeze and thaw, and long-term stability evaluations were conducted.

[2] = Multiple-dose pharmacokinetic study of legubicin, weekly i.v. for 4 weeks; conditions: free metabolite in plasma, weekly i.v. legubicin 5 mg/kg; for Tmax: median [min, max]; for AUClast / Cmax: n = 3
Procedure: (§1) The mixture was vortexed for 3 min, and then centrifuged at 22,000× g at 4 °C for 10 min. A final analysis was conducted by injecting 5 µL supernatant into a UHPLC-MS/MS system. Mouse plasma samples were treated in the same way as the rat plasma samples, except for protein precipitation, with 200 µL of 5 pmol/mL IS working solution and injection of 2 µL of supernatant for analysis.
(§2) (1) For the hydrolysis process, an aliquot of 25 µL of rat/mouse plasma was transferred into an Eppendorf tube, and then 50 µL of enzyme digestion buffer and 25 µL of legumain enzyme were placed into the tube. The mixture was vortexed for 1 min, and then incubated in a water bath for 24 h at 37 °C for enzymatic hydrolysis. (2) For the protein precipitation process, 1000 µL of IS working solution (5 pmol/mL and 50 pmol/mL for rat and mouse plasmas, respectively) was added to the enzymatic-hydrolysis solution. Then, the sample was vortexed for 3 min and centrifuged at 22,000× g for 10 min at 4 °C. Analyses were performed on the 3 µL aliquot of the solution used in the UHPLC-MS/MS system.
(§3) Twenty-four rats, inclusive of both sexes, were randomly distributed into four groups. Groups 1, 2, and 3 were single-dose groups, among which the subjects received legubicin via tail intravenous injection (a dose of 1.5, 5, or 15 mg/kg; i.e., 1.36, 4.52, or 13.6 µmol/kg). The fourth group was utilized for a multi-dose study at 5 mg/kg (once-weekly for 4 consecutive weeks). Blood samples of approximately 150 µL were taken from the jugular vein at 0 h (pre-dosing) and at 0.167 h (10 min), 0.5 h, 1 h, 2 h, 4 h, 8 h, 24 h, 48 h, and 72 h post-dosing in the single-dose groups. Samples were also obtained on days 1 and 22 for the multiple-dose group in the same way as for the single-dose groups. However, on days 8 and 15, samples were taken only before and 10 min after administration. The K2EDTA quantities containing blood samples were centrifuged (4 °C, 4000 rpm, 10 min) to collect plasma samples, which were separated into EP tubes and kept at −80 °C until further assay.
(§4) The analysis software (Version 1.5.2, AB Sciex, Vaughan, ON, Canada) was applied to data acquisition and quantification. Pharmacokinetic parameters were calculated with WinNonlin Phoenix (v6.4, Pharsight, Mountain View, CA, USA) with the noncompartmental method, and were presented as mean ± SD (%CV). The “Best fit” strategy in the WinNonlin Phoenix was used for the calculation of elimination half-life and the selection of the elimination phase. Graphs were plotted by GraphPad Software (GraphPad Prism 8.0.2; GraphPad Software, Inc., La Jolla, CA, USA).

[3] = Single-dose pharmacokinetic study of legubicin, i.v.; conditions: free metabolite in plasma; for AUClast / Cmax: n = 3, mean ± SD; for Tmax: n = 3, median [min, max]
Procedure: The pharmacokinetic parameters are outlined in Table 5. […] A power-function model was used to fit the relationship between exposure level (Cmax, AUClast, and AUCINF_obs) parameters and dose, and the power exponent (parameter β) and its 90% confidence interval were obtained (see Table S5).
as §1, §2, §3, §4

[4] = Storage stability of analytes in mouse tumor homogenate (method validation)
Procedure: (§6) Tumor-bearing mouse tumor/individual tissue samples were homogenized by adding PBS at a ratio of 1:5 (e.g., 1 g of tumor sample to 5 mL of PBS) to make a tumor/tissue homogenate. A quantity of 60 µL of homogenate was taken as a tumor/tissue sample and processed in the same manner as the mouse plasma sample, with the exception of 240 µL of IS working solution used for protein precipitation.
as §5

[5] = Storage stability of analytes in mouse liver homogenate (method validation)
Procedure: as §6, §5

[6] = Tissue-distribution study after i.v. legubicin or doxorubicin; conditions: HT1080 tumor-bearing mice
Procedure: as §1
Each legubicin administration group corresponded to a sampling time-point (4, 16, 32, 48, 96, 168, and 240 h after administration). […] Blood samples and tumor, heart, and kidney tissues were collected at the sampling time points (4, 16, 32, 48, 96, 168, and 240 h after dosing). In addition, liver, spleen, lung, stomach, small intestine, gonads, brain, skeletal muscle, and skin were also collected at 4, 32, 96, and 240 h post-dose time points in the legubicin administration group. All whole-blood samples were processed according to the same processing steps, described above, for rat whole-blood samples.
as §4

[7] = high QC (Leu-DOX 4000, DOX 1200 pmol/mL, conjugate 80 nmol/mL)
[8] = high QC (nominal Leu-DOX 4000, DOX 1200 pmol/mL)
[9] = low QC (Leu-DOX 10, DOX 3 pmol/mL, conjugate 0.2 nmol/mL)
[10] = low QC (nominal Leu-DOX 10, DOX 3 pmol/mL)
[11] = female SD rats, multiple dose (day 22)
[12] = female SD rats, single dose (day 1)
[13] = male SD rats, multiple dose (day 22)
[14] = male SD rats, single dose (day 1)
[15] = female SD rats, single i.v. legubicin 5 mg/kg
[16] = female SD rats, single i.v. legubicin 15 mg/kg
[17] = male SD rats, single i.v. legubicin 5 mg/kg
[18] = male SD rats, single i.v. legubicin 15 mg/kg
[19] = i.v. 9.05 µmol/kg of the labelled drug, n = 6, UHPLC-MS/MS

COc1cccc2c1C(=O)c1c(O)c3c(c(O)c1C2=O)C[C@@](O)(C(=O)CO)C[C@@H]3O[C@H]1C[C@H](N)[C@H](O)[C@H](C)O1 [DOX, Doxorubicin]
Auto-Sampler Stability at 2–8 °C (72 h), Bias [1, 7]: 1.0%
Auto-Sampler Stability at 2–8 °C (72 h), Measured Concentration [1, 8]: 1211.67 ± 104.58 nM
Auto-Sampler Stability at 2–8 °C (72 h), Bias [1, 9]: 4.4%
Auto-Sampler Stability at 2–8 °C (72 h), Measured Concentration [1, 10]: 3.13 ± 0.25 nM
Short-Term Stability at Room Temperature (4 h), Bias [1, 7]: 3.2%
Freeze and Thaw Stability at −80 °C/Room Temperature (3 Cycles), Bias [1, 7]: 1.8%
Long-Term Stability at −80 °C (70 days), Bias [1, 7]: −0.8%
Freeze and Thaw Stability at −80 °C/Room Temperature (3 Cycles), Measured Concentration [1, 8]: 1221.67 ± 97.45 pmol/mL
Long-Term Stability at −80 °C (70 days), Measured Concentration [1, 8]: 1190.00 ± 40.50 pmol/mL
Short-Term Stability at Room Temperature (4 h), Measured Concentration [1, 8]: 1238.33 ± 100.48 pmol/mL
Short-Term Stability at Room Temperature (4 h), Bias [1, 9]: 1.2%
Freeze and Thaw Stability at −80 °C/Room Temperature (3 Cycles), Bias [1, 9]: 0.4%
Long-Term Stability at −80 °C (70 days), Bias [1, 9]: −0.6%
Freeze and Thaw Stability at −80 °C/Room Temperature (3 Cycles), Measured Concentration [1, 10]: 3.01 ± 0.15 pmol/mL
Long-Term Stability at −80 °C (70 days), Measured Concentration [1, 10]: 2.98 ± 0.29 pmol/mL
Short-Term Stability at Room Temperature (4 h), Measured Concentration ([1]; low QC (nominal Leu-DOX 10, DOX 3 pmol/mL), UHPLC-MS/MS): 3.04 ± 0.18 pmol/mL
Tmax [2, 11]: 0.167 [0.167, 0.167] h
AUClast [2, 11]: 0.174 ± 0.0367 µM·h
Cmax [2, 11]: 4.70 ± 0.534 nM
Tmax [2, 12]: 0.167 [0.167, 0.167] h
AUClast [2, 12]: 0.0945 ± 0.0447 µM·h
Cmax [2, 12]: 3.10 ± 0.367 nM
Tmax [2, 13]: 0.167 [0.167, 0.167] h
AUClast [2, 13]: 0.207 ± 0.0112 µM·h
Cmax [2, 13]: 8.58 ± 0.616 nM
Tmax [2, 14]: 0.167 [0.167, 0.167] h
AUClast [2, 14]: 0.123 ± 0.0441 µM·h
Cmax [2, 14]: 6.01 ± 0.430 nM
AUClast [3, 15]: 0.1 ± 0.00538 µM·h
Cmax [3, 15]: 3.11 ± 0.615 nM
Tmax [3, 15]: 0.167 [0.167, 0.167] h
AUClast [3, 16]: 0.486 ± 0.0464 µM·h
Cmax [3, 16]: 20.5 ± 5.06 nM
Tmax [3, 16]: 0.167 [0.167, 0.167] h
AUClast [3, 17]: 0.173 ± 0.0243 µM·h
Cmax [3, 17]: 6.65 ± 1.30 nM
Tmax [3, 17]: 0.167 [0.167, 0.167] h
AUClast [3, 18]: 0.789 ± 0.0997 µM·h
Cmax [3, 18]: 44.2 ± 4.65 nM
Tmax [3, 18]: 0.167 [0.167, 0.167] h
Freeze and thaw stability at -80 °C/ room temperature, Bias ([4]; mouse tumor homogenate, 3 cycles, low QC (Leu-DOX 27, DOX 9 pmol/mL), n = 6): -1.2%
Freeze and thaw stability at -80 °C/ room temperature, Measured concentration ([4]; mouse tumor homogenate, 3 cycles, low QC (nominal Leu-DOX 27, DOX 9 pmol/mL), n = 6, mean ± SD): 8.89 ± 0.66 pmol/mL
Short term stability at room temperature (6 h), Bias ([4]; mouse tumor homogenate, low QC (Leu-DOX 27, DOX 9 pmol/mL), n = 6): 5.7%
Short term stability at room temperature (6 h), Measured concentration ([4]; mouse tumor homogenate, low QC (nominal Leu-DOX 27, DOX 9 pmol/mL), n = 6, mean ± SD): 9.51 ± 0.67 pmol/mL
Auto-sampler stability at 2-8 °C, Bias ([4]; processed mouse tumor homogenate, 48h, low QC (Leu-DOX 27, DOX 9 pmol/mL), n = 6): -5.1%
Auto-sampler stability at 2-8 °C, Measured concentration ([4]; processed mouse tumor homogenate, 48h, low QC (nominal Leu-DOX 27, DOX 9 pmol/mL), n = 6, mean ± SD): 8.54 ± 0.89 pmol/mL
Freeze and thaw stability at -80 °C/ room temperature, Measured concentration ([5]; mouse liver homogenate, 3 cycles, low QC (nominal Leu-DOX 27, DOX 10 pmol/mL), n = 6, mean ± SD): 11.04 ± 0.68 pmol/mL
Short term stability at room temperature (6 h), Bias ([5]; mouse liver homogenate, low QC (Leu-DOX 27, DOX 10 pmol/mL), n = 6): 0.8%
Short term stability at room temperature (6 h), Measured concentration ([5]; mouse liver homogenate, low QC (nominal Leu-DOX 27, DOX 10 pmol/mL), n = 6, mean ± SD): 10.08 ± 0.52 pmol/mL
Auto-sampler stability at 2-8 °C, Measured concentration ([5]; processed mouse liver homogenate, 48h, low QC (nominal Leu-DOX 27, DOX 10 pmol/mL), n = 6, mean ± SD): 11.06 ± 0.81 pmol/mL
AUClast of doxorubicin in heart [6, 19]: 29.0 nmol·h/g
AUClast of doxorubicin in kidney [6, 19]: 83.5 nmol·h/g
AUClast of doxorubicin in plasma [6, 19]: 1.07 nmol·h/g
AUClast of doxorubicin in tumor [6, 19]: 63.1 nmol·h/g
order of exposure (Dox distribution) ([6]; after i.v. doxorubicin 9.05 µmol/kg, n = 6): kidney > tumor > heart > plasma
time of maximum concentration (Cmax) in all tissues ([6]; after i.v. doxorubicin 9.05 µmol/kg, initial sampling point): 4 h
brain penetration of the metabolite ([6]; after i.v. legubicin 9.05 µmol/kg): neither the metabolite doxorubicin nor free Leu-Dox permeated the brain
tissue concentration rank order of the metabolite ([6]; after i.v. legubicin 9.05 µmol/kg, n = 6): liver having the highest levels, followed by the tumor, skin, lung, gonads, spleen, kidney, stomach, small intestine, skeletal muscle, heart, and plasma

Source: publication PMC10892419, “UHPLC-MS/MS Assay for Quantification of Legubicin, a Novel Doxorubicin-Based Legumain-Activated Prodrug, and Its Application to Pharmacokinetic and Tissue Distribution Studies” (Molecules, 2024)
